In brackets after ≈: the same amount, converted by molar mass. Entries after “also recorded” stand apart in the source; their conditions may differ.
Tests used:
Format in all cases: physicochemical
[1] = DVS (water sorption, hygroscopicity, form change post-DVS); settings: for form change post-DVS (XRPD): after DVS (desorption and resorption); for hygroscopicity (from DVS): based on water sorption at 80% RH
[2] = Approximate solubility of Compound I, Type 1 at RT in twenty solvents (stepwise solvent addition); settings: for solubility: thermodynamic from solid, read-out: Approximate Solubility (mg/mL) at RT
Procedure: The solubility of Compound I, Type 1 (6036531-01-A) was estimated at RT in twenty different solvents. Approximately 2 mg solids were added into a 3-mL glass vial. Solvents in Table 39 were then added stepwise (50 μL per step) into the vials until the solids were dissolved or a total volume of 2 mL was reached.

[3] = Competitive slurry studies, solid form checked by XRPD (thermodynamic stability of forms)
Procedure: Competitive slurry studies with Type 1 and the material produced from manufacture (Type 1 and 8 mixture) were performed at 25 and 50° C. in THF, EtOH and EtOAc. The solid form was checked by XRPD on day 3 and day 7.

[4] = Approximate solubility test of Compound I at room temperature / 50° C. in different solvents; settings: thermodynamic from solid
Procedure: The specific steps are as follows: Charge about 5 mg of Compound I into a clean glass vial, […] visible particles (add up to 1.5 mL of solvent), record the amount of solvent at last for the calculation of solubility.

With `Cn1cnc([C@@H]2C[C@@H]3C[C@@](O)(c4cc(OCC(C)(C)O)nn4C)C[C@@H]3C2)c1C(=O)Nc1ccc(F)c(Cl)c1` [Type 2, N-(3-chloro-4-fluorophenyl)-4-((2s,3aR,5r,6aS)-5-hydroxy-5-(3-(2-hydroxy-2-methylpropoxy)-1-methyl-1H-pyrazol-5-yl)octahydropentalen-2-yl)-1-methyl-1H-imidazole-5-carboxamide] the “RH range in which the form is stable (DVS)” value [1] was 30-95 % RH, the “water content at 80% RH by DVS” value ([1]; 80% RH) was 9.2% and the “form change post-DVS (XRPD)” value [1] was “Form change was observed post-DVS to a lower order hydrate; also recorded: converted to Type 3”.
For `Cn1cnc([C@@H]2C[C@@H]3C[C@@](O)(c4cc(OCC(C)(C)O)nn4C)C[C@@H]3C2)c1C(=O)Nc1ccc(F)c(Cl)c1` [Type 1, N-(3-chloro-4-fluorophenyl)-4-((2s,3aR,5r,6aS)-5-hydroxy-5-(3-(2-hydroxy-2-methylpropoxy)-1-methyl-1H-pyrazol-5-yl)octahydropentalen-2-yl)-1-methyl-1H-imidazole-5-carboxamide], the “water content at 80% RH by DVS” value ([1]; 80% RH) was 0.67%, the “form change post-DVS (XRPD)” value [1] was “no form change” and the “hygroscopicity (from DVS)” value [1] was “slightly hygroscopic”. For the same compound, the “Characterization (of approximate solubility)” value (“Characterization” below) ([2]; 1-Butanol) was “Moderate”, the “Characterization” value ([2]; 2-MeTHF) was “Moderate” and the “Characterization” value ([2]; Acetone) was “Moderate”. The “Characterization” value ([2]; Acetonitrile) was “Poor”, the “Characterization” value ([2]; CPME) was “Poor” and the “Characterization” value ([2]; DCM) was “Poor”. The “Characterization” value ([2]; DMF) was “High”, the “Characterization” value ([2]; DMSO) was “High” and the “Characterization” value ([2]; EtOH) was “High”. For the same compound, the “Characterization” value ([2]; H2O) was “Poor”, the “Characterization” value ([2]; IPA) was “Moderate” and the “Characterization” value ([2]; IPAc) was “Poor”. The “Characterization” value ([2]; MEK) was “Moderate”, the “Characterization” value ([2]; MIBK) was “Poor” and the “Characterization” value ([2]; MTBE) was “Poor”. For the same compound, the “Characterization” value ([2]; MeOH) was “High”, the “Characterization” value ([2]; THF) was “High” and the “Characterization” value ([2]; Toluene) was “Poor”. For the same compound, the “Characterization” value ([2]; n-Heptane) was “Poor”, the “Characterization” value ([2]; n-Propanol) was “Moderate” and the solubility ([2]; organic solvent or mixture, 1-Butanol) was 2.4 to 8 mg/mL (≈ 4.4 to 14.7 mM). The solubility ([2]; organic solvent or mixture, 2-MeTHF) was 2.2 to 7.3 mg/mL (≈ 4.03 to 13.4 mM), the solubility ([2]; organic solvent or mixture, Acetone) was 2.3 to 7.7 mg/mL (≈ 4.21 to 14.1 mM) and the solubility ([2]; organic solvent or mixture, Acetonitrile) was < 2 mg/mL. For the same compound, the solubility ([2]; organic solvent or mixture, CPME) was < 2.2 mg/mL, the solubility ([2]; organic solvent or mixture, DCM) was < 2.4 mg/mL and the solubility ([2]; organic solvent or mixture, DMF) was > 48 mg/mL. For the same compound, the solubility ([2]; organic solvent or mixture, DMSO) was > 48 mg/mL, the solubility ([2]; organic solvent or mixture, EtOH) was 20 to 40 mg/mL (≈ 36.6 to 73.3 mM) and the solubility ([2]; organic solvent or mixture, IPA) was 2.2 to 7.3 mg/mL (≈ 4.03 to 13.4 mM). For the same compound, the solubility ([2]; organic solvent or mixture, IPAc) was < 2.1 mg/mL, the solubility ([2]; organic solvent or mixture, MEK) was 2.2 to 7.3 mg/mL (≈ 4.03 to 13.4 mM) and the solubility ([2]; organic solvent or mixture, MIBK) was < 2.2 mg/mL. The solubility ([2]; organic solvent or mixture, MTBE) was < 2 mg/mL, the solubility ([2]; organic solvent or mixture, MeOH) was > 42 mg/mL and the solubility ([2]; organic solvent or mixture, THF) was 21 to 42 mg/mL (≈ 38.5 to 76.9 mM). For the same compound, the solubility ([2]; organic solvent or mixture, Toluene) was < 2.5 mg/mL, the solubility ([2]; organic solvent or mixture, n-Heptane) was < 2.3 mg/mL and the solubility ([2]; organic solvent or mixture, n-Propanol) was 2.2 to 7.3 mg/mL (≈ 4.03 to 13.4 mM). The solubility ([2]; water, H2O) was < 2.5 mg/mL.
For `Cn1cnc([C@@H]2C[C@@H]3C[C@@](O)(c4cc(OCC(C)(C)O)nn4C)C[C@@H]3C2)c1C(=O)Nc1ccc(F)c(Cl)c1` [Type 8, N-(3-chloro-4-fluorophenyl)-4-((2s,3aR,5r,6aS)-5-hydroxy-5-(3-(2-hydroxy-2-methylpropoxy)-1-methyl-1H-pyrazol-5-yl)octahydropentalen-2-yl)-1-methyl-1H-imidazole-5-carboxamide], the “water update at 80% RH (DVS)” value ([1]; 80% RH) was 0.1%, the “form change post-DVS (XRPD)” value [1] was “No change in crystalline form” and the “hygroscopicity (from DVS)” value [1] was “non-hygroscopic”. The “thermodynamic stability among all forms discovered” value [3] was “the most thermodynamically stable form discovered to date” and the “relative thermodynamic stability of the form” value ([3]; at 25 and 50° C., versus Type 1) was “the more thermodynamically stable form”.
For `Cn1cnc(C2CC3CC(O)(c4cc(OCC(C)(C)O)nn4C)CC3C2)c1C(=O)Nc1ccc(F)c(Cl)c1` (stereo not shown) [Compound I, N-(3-Chloro-4-fluorophenyl)-4-(5-hydroxy-5-(3-(2-hydroxy-2-methylpropoxy)-1-methyl-1H-pyrazol-5-yl)octahydropentalen-2-yl)-1-methyl-1H-imidazole-5-carboxamide], the solubility ([4]; organic solvent or mixture, ACN, 20-25° C., read-out: Solubility (mg/mL) 20-25° C.) was < 3.3 mg/mL, the solubility ([4]; organic solvent or mixture, ACN, 50° C., read-out: Solubility (mg/mL) 50° C.) was < 3.3 mg/mL and the solubility ([4]; organic solvent or mixture, Acetone, 20-25° C., read-out: Solubility (mg/mL) 20-25° C.) was < 3.3 mg/mL. For the same compound, the solubility ([4]; organic solvent or mixture, Acetone, 50° C., read-out: Solubility (mg/mL) 50° C.) was 3.8 to 4 mg/mL (≈ 6.96 to 7.33 mM), the solubility ([4]; organic solvent or mixture, Acetone/H2O = 95/5(V/V), 20-25° C., read-out: Solubility (mg/mL) 20-25° C.) was 5 to 5.1 mg/mL (≈ 9.16 to 9.34 mM) and the solubility ([4]; organic solvent or mixture, Acetone/H2O = 95/5(V/V), 50° C., read-out: Solubility (mg/mL) 50° C.) was 6.5 to 6.7 mg/mL (≈ 11.9 to 12.3 mM). For the same compound, the solubility ([4]; organic solvent or mixture, DCM, 20-25° C., read-out: Solubility (mg/mL) 20-25° C.) was < 3.3 mg/mL, the solubility ([4]; organic solvent or mixture, DCM, 50° C., read-out: Solubility (mg/mL) 50° C.) was < 3.3 mg/mL and the solubility ([4]; organic solvent or mixture, DMSO, 20-25° C., read-out: Solubility (mg/mL) 20-25° C.) was 167 to 200 mg/mL (≈ 306 to 366 mM). The solubility ([4]; organic solvent or mixture, DMSO, 50° C., read-out: Solubility (mg/mL) 50° C.) was 250 to 333 mg/mL (≈ 458 to 610 mM), the solubility ([4]; organic solvent or mixture, EA, 20-25° C., read-out: Solubility (mg/mL) 20-25° C.) was < 3.3 mg/mL and the solubility ([4]; organic solvent or mixture, EA, 50° C., read-out: Solubility (mg/mL) 50° C.) was < 3.3 mg/mL. For the same compound, the solubility ([4]; organic solvent or mixture, EtOH, 20-25° C., read-out: Solubility (mg/mL) 20-25° C.) was 8 to 8.3 mg/mL (≈ 14.7 to 15.2 mM), the solubility ([4]; organic solvent or mixture, EtOH, 50° C., read-out: Solubility (mg/mL) 50° C.) was 20 to 20.4 mg/mL (≈ 36.6 to 37.4 mM) and the solubility ([4]; organic solvent or mixture, EtOH/H2O = 95/5(V/V), 20-25° C., read-out: Solubility (mg/mL) 20-25° C.) was 22.2 to 23.2 mg/mL (≈ 40.7 to 42.5 mM). For the same compound, the solubility ([4]; organic solvent or mixture, EtOH/H2O = 95/5(V/V), 50° C., read-out: Solubility (mg/mL) 50° C.) was 45.4 to 47.6 mg/mL (≈ 83.1 to 87.2 mM), the solubility ([4]; organic solvent or mixture, Heptane, 20-25° C., read-out: Solubility (mg/mL) 20-25° C.) was < 3.3 mg/mL and the solubility ([4]; organic solvent or mixture, Heptane, 50° C., read-out: Solubility (mg/mL) 50° C.) was < 3.3 mg/mL. For the same compound, the solubility ([4]; organic solvent or mixture, IPA, 20-25° C., read-out: Solubility (mg/mL) 20-25° C.) was < 3.3 mg/mL, the solubility ([4]; organic solvent or mixture, IPA, 50° C., read-out: Solubility (mg/mL) 50° C.) was 5 to 5.1 mg/mL (≈ 9.16 to 9.34 mM) and the solubility ([4]; organic solvent or mixture, IPA/H2O = 95/5(V/V), 20-25° C., read-out: Solubility (mg/mL) 20-25° C.) was < 3.3 mg/mL. The solubility ([4]; organic solvent or mixture, IPA/H2O = 95/5(V/V), 50° C., read-out: Solubility (mg/mL) 50° C.) was 8 to 8.1 mg/mL (≈ 14.7 to 14.8 mM), the solubility ([4]; organic solvent or mixture, IPAc, 20-25° C., read-out: Solubility (mg/mL) 20-25° C.) was < 3.3 mg/mL and the solubility ([4]; organic solvent or mixture, IPAc, 50° C., read-out: Solubility (mg/mL) 50° C.) was < 3.3 mg/mL. For the same compound, the solubility ([4]; organic solvent or mixture, MTBE, 20-25° C., read-out: Solubility (mg/mL) 20-25° C.) was < 3.3 mg/mL, the solubility ([4]; organic solvent or mixture, MTBE, 50° C., read-out: Solubility (mg/mL) 50° C.) was < 3.3 mg/mL and the solubility ([4]; organic solvent or mixture, MeOH, 20-25° C., read-out: Solubility (mg/mL) 20-25° C.) was 32.2 to 33.3 mg/mL (≈ 59 to 61 mM). The solubility ([4]; organic solvent or mixture, MeOH, 50° C., read-out: Solubility (mg/mL) 50° C.) was 74.1 to 76.9 mg/mL (≈ 136 to 141 mM), the solubility ([4]; organic solvent or mixture, THF, 20-25° C., read-out: Solubility (mg/mL) 20-25° C.) was 12.5 to 12.6 mg/mL (≈ 22.9 to 23.1 mM) and the solubility ([4]; organic solvent or mixture, THF, 50° C., read-out: Solubility (mg/mL) 50° C.) was 18.1 to 18.5 mg/mL (≈ 33.1 to 33.9 mM). For the same compound, the solubility ([4]; organic solvent or mixture, Toluene, 20-25° C., read-out: Solubility (mg/mL) 20-25° C.) was < 3.3 mg/mL, the solubility ([4]; organic solvent or mixture, Toluene, 50° C., read-out: Solubility (mg/mL) 50° C.) was < 3.3 mg/mL and the solubility ([4]; water, H2O, 20-25° C., read-out: Solubility (mg/mL) 20-25° C.) was < 3.3 mg/mL. For the same compound, the solubility ([4]; water, H2O, 50° C., read-out: Solubility (mg/mL) 50° C.) was < 3.3 mg/mL.
